# According to patent US20260207600A1, “METHODS OF TREATMENT WITH MYOSIN MODULATOR” (MYOKARDIA, INC., priority 2019, published 2026):
# Several values for one entry are separate records, joined by “and”; a condition that tells them apart may be missing. Equal values may be shown once. Entries after “also recorded” stand apart in the source; their conditions may differ. Read-outs that look alike come from different tables or passages of the source.
# Assays:
# [1] = Half-life and clearance analysis from early clinical studies by CYP2C19 metabolizer phenotype; type: in vivo, human; conditions: for half-life / clearance: oral; for clearance: read-out: clearance rate
# Description: The effect of CYP2C19 phenotype and genotype on the metabolism function of the CYP2C19 enzyme has been presently investigated. […] Specifically, normal metabolizers typically have a half-life of from about 6 to about 9 days, e.g., about 7 days (1 week), whereas poor metabolizers have a longer half-life, e.g., from about 12 to about 30 days, or often from about 16 to about 28 days based on current data in humans.
# Half-life and clearance rate were analyzed after a single oral dose. Clearance rate was calculated as CL=Dose*F/AUCinf. […] Half-life and clearance rate were analyzed after the last dose upon reaching steady state. Clearance rate was calculated as CL,ss=Dose*F/AUC(0-T). Both trials were combined and analyzed by one-way ANOVA, followed by Tukey's multiple comparison test.
# UM (rapid/ultra-rapid metabolizer) is *1/*17 or *17/*17; EM (extensive metabolizer) is *1/*1; IM (intermediate metabolizer) is *1/*2 or *17/*2; and PM (poor metabolizer) is *2/*2 or *2/*3.
# Similar studies were performed for CYP3A5 and CYP2C9 polymorphisms.
# [2] = tested on: individuals with symptomatic obstructive hypertrophic cardiomyopathy (oHCM); experiment: PIONEER-OLE Phase 2 open-label extension study of mavacamten; type: in vivo
# Description: All subjects were started on a dose of 5 mg QD.
# To maximize safety, the starting dose will be 5 mg for all subjects. Subjects will return at Week 4 (±4 days) for a plasma PK sample to measure drug levels and to undergo echocardiography to determine LVOT gradient (at rest, after a Valsalva maneuver, and after exercise) and left ventricular ejection fraction (LVEF).
# After Week 6, additional study visits will occur at Week 8 (±7 days), Week 12 (±7 days), and every 12 weeks (±7 days) thereafter. Subjects also will be contacted by phone in between clinic visits, at Week 18 and every 12 weeks thereafter. An end of study (EOS) visit will occur 12 weeks (±7 days) after the last administration of study drug. Visits (including the Screening visit which serves as the baseline) will entail recording vital signs, targeted physical examination, ECGs, safety laboratory tests, N-terminal pro b-type natriuretic peptide (NT-proBNP), adverse events (AEs), New York Heart Association (NYHA) functional class, Kansas City Cardiomyopathy Questionnaire (KCCQ) score, and concomitant medications. At Weeks 4, 8, 24, 36, 48, 60, 72, 96, 120, 144, 156/early termination (ET), and 168/EOS, a predose blood sample for assessment of drug concentration will be obtained. A standard TTE (including but not limited to assessment of LVOT gradient at rest and after Valsalva) will be performed at baseline, at Weeks 4, 8, 12, 24, 36, 48, 72, 96, 120, 144, 156/ET, and 168/EOS. In addition, a stress echocardiogram (with assessment of LVOT gradient post-exercise) will also be performed at baseline, Weeks 4, 48, 72, 156/ET, and 168/EOS.
# The study endpoints include safety, tolerability, and select measures of efficacy using individualized dosing. Key measurements include LVOT gradient, LVEF, NT-proBNP.
# • 1. Frequency and severity of treatment-emergent AEs and SAEs, • 2. Frequency of cardiovascular (CV) death, • 3. Frequency of sudden death, • 4. Frequency of CV hospitalization, • 5. Frequency of heart failure requiring the initiation of oral loop diuretics or the administration of intravenous loop diuretics, • 6. Frequency of myocardial infarction, • 7. Frequency of ventricular arrhythmias (ventricular tachycardia, ventricular fibrillation, ventricular flutter, torsade de pointe), • 8. Frequency of syncope, • 9. Frequency of seizures, • 10. Frequency of stroke, • 11. Frequency of LVEF≤45% as measured by echocardiography, • 12. QT and QTcF intervals over time.
# • 1. Post-exercise, post-Valsalva, and resting LVOT gradient over time, • 2. NYHA functional class over time, • 3. KCCQ scores over time, • 4. NT-proBNP over time, • 5. Frequency of septal reduction therapy.
# anaesthetized rats = experiment: Counteraction of mavacamten effects by dobutamine in anaesthetized rats; type: in vivo, rat
# Source text: Additional supportive measures, e.g., intravenous volume supplementation and/or the use of arterial vasoconstrictor agents (a adrenergic agonists) may complement the use of a β adrenergic agonist.
# CYP2C9 = CYP2C9 (Homo sapiens, UniProt P11712); experiment: In vitro contribution of CYP enzymes to mavacamten metabolism; type: in vitro ADME
# [3] = human, in vivo, CYP2C19 normal metabolizers
# [4] = human, in vivo, CYP2C19 poor metabolizers
# [5] = Change from Baseline to Week 48
# Sequence of CYP2C9 (P11712 whole entry): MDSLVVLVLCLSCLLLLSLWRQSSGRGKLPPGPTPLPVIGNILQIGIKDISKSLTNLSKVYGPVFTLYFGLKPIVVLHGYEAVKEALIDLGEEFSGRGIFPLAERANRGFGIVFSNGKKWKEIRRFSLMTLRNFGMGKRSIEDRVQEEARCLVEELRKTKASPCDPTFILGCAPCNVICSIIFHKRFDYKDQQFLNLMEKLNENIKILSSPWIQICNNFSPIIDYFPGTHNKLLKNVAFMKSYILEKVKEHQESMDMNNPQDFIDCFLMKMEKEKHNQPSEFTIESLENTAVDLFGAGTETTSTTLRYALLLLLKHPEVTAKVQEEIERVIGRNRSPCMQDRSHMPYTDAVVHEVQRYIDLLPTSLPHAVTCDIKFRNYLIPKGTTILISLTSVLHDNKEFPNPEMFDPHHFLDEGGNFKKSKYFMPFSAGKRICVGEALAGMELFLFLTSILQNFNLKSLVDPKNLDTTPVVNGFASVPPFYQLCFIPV
smiles,measurement,setting,value
"CC(C)n1c(=O)cc(N[C@@H](C)c2ccccc2)[nH]c1=O [mavacamten, (S)-3-Isopropyl-6-((1-phenylethyl)amino)pyrimidine-2, 4(1H,3H)-dione]",clearance and terminal half-life by phenotype,"[1]; CYP2C19 poor metabolizers vs other patients (UM, EM and IM)",lower clearance and longer terminal half-life
same,increase in exposure,[1]; PM genotype compared to normal CYP 2C19 metabolizer (NM) genotype,approximately 4 fold
same,"effect of CYP3A4/5 (CYP3A5) and CYP2C9 polymorphisms on pharmacokinetics (half-life, clearance rate)","[1]; human, in vivo",insignificant effects; also recorded: did not have a significant effect
same,half-life,[1]; [3],6 to 9 days
same,clearance,[1]; [3],10 to 100 mL/min
same,half-life,[1]; [4],12 to 30 days
same,clearance,[1]; [4],< 15 mL/min
same,Cardiac-related adverse events (AEs) attributed to study drug,[2]; 48-week period,no cardiac-related adverse events
same,E/e′ lateral,[2]; [5],−3.4
same,"NT-proBNP, median",[2]; [5],-472 pg/mL
same,"e′lat, mean ± SD",[2]; [5],1.6 cm/s and 1.6 ± 1.1 cm/s
same,IVS,"[2]; Change from Baseline to Week 48, Table 1.1",−1.5 mm
same,E/e′ lateral,[2]; Week 12,9.8
same,"Interventricular septal thickness, Change from baseline, mean ± SD",[2]; Week 12,−0.7 ± 0.7 mm
same,"Interventricular septal thickness, Mean ± SD",[2]; Week 12,15.9 ± 2.7 mm
same,"LV maximum wall thickness, Change from baseline, mean ± SD",[2]; Week 12,−0.8 ± 2.0 mm
same,"LV maximum wall thickness, Mean ± SD",[2]; Week 12,20.1 ± 2.5 mm
same,"LV posterior wall thickness, Change from baseline, mean ± SD",[2]; Week 12,0.2 ± 0.8 mm
same,"LV posterior wall thickness, Mean ± SD",[2]; Week 12,11.9 ± 2.2 mm
same,"NT-proBNP, median",[2]; Week 12,99 pg/mL
same,"Systolic anterior motion of the mitral valve present, %",[2]; Week 12,(46.2) %
same,"e′lat, mean ± SD",[2]; Week 12,8.4 ± 2.3 cm/s
same,IVS,"[2]; Week 12, Table 1.1",16.0 mm
same,E/e′ lateral,[2]; Week 24,10.2
same,"Interventricular septal thickness, Change from baseline, mean ± SD",[2]; Week 24,−0.7 ± 1.1 mm
same,"Interventricular septal thickness, Mean ± SD",[2]; Week 24,15.8 ± 2.7 mm
same,"LV maximum wall thickness, Change from baseline, mean ± SD",[2]; Week 24,−1.8 ± 1.8 mm
same,"LV maximum wall thickness, Mean ± SD",[2]; Week 24,19.1 ± 2.4 mm
same,"LV posterior wall thickness, Change from baseline, mean ± SD",[2]; Week 24,0.2 ± 0.9 mm
same,"LV posterior wall thickness, Mean ± SD",[2]; Week 24,11.8 ± 2.0 mm
same,"NT-proBNP, median",[2]; Week 24,93 pg/mL
same,"Systolic anterior motion of the mitral valve present, %",[2]; Week 24,(46.2) %
same,"e′lat, mean ± SD",[2]; Week 24,7.9 ± 2.2 cm/s
same,IVS,"[2]; Week 24, Table 1.1",15.8 mm
same,E/e′ lateral,[2]; Week 36,8.5
same,"Interventricular septal thickness, Change from baseline, mean ± SD",[2]; Week 36,−1.2 ± 1.7 mm
same,"Interventricular septal thickness, Mean ± SD",[2]; Week 36,15.4 ± 2.7 mm
same,"LV maximum wall thickness, Change from baseline, mean ± SD",[2]; Week 36,−1.8 ± 1.9 mm
same,"LV maximum wall thickness, Mean ± SD",[2]; Week 36,19.0 ± 2.2 mm
same,"LV posterior wall thickness, Change from baseline, mean ± SD",[2]; Week 36,0.0 ± 1.5 mm
same,"LV posterior wall thickness, Mean ± SD",[2]; Week 36,11.7 ± 1.7 mm
same,"NT-proBNP, median",[2]; Week 36,168 pg/mL
same,"Systolic anterior motion of the mitral valve present, %",[2]; Week 36,(58.3) %
same,"e′lat, mean ± SD",[2]; Week 36,8.7 ± 2.8 cm/s
same,IVS,"[2]; Week 36, Table 1.1",15.4 mm
same,E/e′ lateral,[2]; Week 48,9.1
same,"Interventricular septal thickness, Change from baseline, mean ± SD",[2]; Week 48,−1.2 ± 2.3 mm
same,"Interventricular septal thickness, Mean ± SD",[2]; Week 48,15.5 ± 2.0 mm
same,"LV maximum wall thickness, Change from baseline, mean ± SD",[2]; Week 48,−1.4 ± 2.2 mm
same,"LV maximum wall thickness, Mean ± SD",[2]; Week 48,19.4 ± 2.7 mm
same,"LV posterior wall thickness, Change from baseline, mean ± SD",[2]; Week 48,−0.5 ± 1.9 mm
same,"LV posterior wall thickness, Mean ± SD",[2]; Week 48,11.1 ± 1.9 mm
same,"NT-proBNP, median",[2]; Week 48,137 pg/mL
same,"Systolic anterior motion of the mitral valve present, %",[2]; Week 48,(33.3) %
same,"Valsalva LVOT gradient, mean change",[2]; Week 48,−66.0 mm Hg
same,"e′lat, mean ± SD",[2]; Week 48,8.0 ± 1.6 cm/s
same,mean resting LVOT gradient,[2]; Week 48,14.0 mm Hg
same,patients achieving a post-exercise LVOT gradient<30 mm Hg,[2]; Week 48,Five
same,"post-exercise LVOT gradient, mean change",[2]; Week 48,−85.1 mm Hg
same,resting LVOT gradient for all subjects,[2]; Week 48,below 50 mmHg
same,subjects achieving asymptomatic status (NYHA Class I),[2]; Week 48,nine out of twelve
same,subjects with resting LVOT gradient below the 30 mmHg threshold,[2]; Week 48,11 of 12
same,IVS,"[2]; Week 48, Table 1.1",15 mm and 15.3 mm
same,"Interventricular septal thickness, Change from baseline, mean ± SD","[2]; Week 48, listed as Mavacamten",−1.2 mm
same,"LV maximum wall thickness, Change from baseline, mean ± SD","[2]; Week 48, listed as Mavacamten",−1.4 mm
same,KCCQ mean score,"[2]; Week 48, scores range 0-100",87.3
same,LVEF for all patients,[2]; all timepoints throughout the study,above 50%
same,"resting LVOT gradient, mean change",[2]; baseline to Week 48,−52.7 mm Hg
same,Number of AEs considered potentially related to study drug,[2]; in 3 subjects,8
same,number of SAEs,"[2]; in 3 subjects, not cardiovascular, not related to study drug",4
same,Number of AEs,"[2]; most mild or moderate, and transient",64
same,Tolerability,[2]; one-year treatment period,well tolerated
same,Reversal of pharmacologic effects by β adrenergic agonist,anaesthetized rats,can be counteracted by β adrenergic agonists
same,percent contribution to the metabolism of mavacamten,CYP2C9,7.5%
